Laboratory results published in patent US11484591B2, “Chemoprevention using controlled-release formulations of anti-interleukin 6 agents, synthetic vitamin A analogues or metabolites, and estradiol metabolites” (OHIO STATE INNOVATION FOUNDATION, priority 2016, dated 2022).
≈ marks a conversion by molar mass, not a printed value. Entries after “also recorded” stand apart in the source; their conditions may differ.

What was measured:
[1] = Fenretinide solubility; assay type: physicochemical
[2] = target: ATP binding sites of FAK (Homo sapiens, UniProt Q05397); conditions: cited from earlier work
ATP binding sites of FAK, sequence (Q05397 whole entry): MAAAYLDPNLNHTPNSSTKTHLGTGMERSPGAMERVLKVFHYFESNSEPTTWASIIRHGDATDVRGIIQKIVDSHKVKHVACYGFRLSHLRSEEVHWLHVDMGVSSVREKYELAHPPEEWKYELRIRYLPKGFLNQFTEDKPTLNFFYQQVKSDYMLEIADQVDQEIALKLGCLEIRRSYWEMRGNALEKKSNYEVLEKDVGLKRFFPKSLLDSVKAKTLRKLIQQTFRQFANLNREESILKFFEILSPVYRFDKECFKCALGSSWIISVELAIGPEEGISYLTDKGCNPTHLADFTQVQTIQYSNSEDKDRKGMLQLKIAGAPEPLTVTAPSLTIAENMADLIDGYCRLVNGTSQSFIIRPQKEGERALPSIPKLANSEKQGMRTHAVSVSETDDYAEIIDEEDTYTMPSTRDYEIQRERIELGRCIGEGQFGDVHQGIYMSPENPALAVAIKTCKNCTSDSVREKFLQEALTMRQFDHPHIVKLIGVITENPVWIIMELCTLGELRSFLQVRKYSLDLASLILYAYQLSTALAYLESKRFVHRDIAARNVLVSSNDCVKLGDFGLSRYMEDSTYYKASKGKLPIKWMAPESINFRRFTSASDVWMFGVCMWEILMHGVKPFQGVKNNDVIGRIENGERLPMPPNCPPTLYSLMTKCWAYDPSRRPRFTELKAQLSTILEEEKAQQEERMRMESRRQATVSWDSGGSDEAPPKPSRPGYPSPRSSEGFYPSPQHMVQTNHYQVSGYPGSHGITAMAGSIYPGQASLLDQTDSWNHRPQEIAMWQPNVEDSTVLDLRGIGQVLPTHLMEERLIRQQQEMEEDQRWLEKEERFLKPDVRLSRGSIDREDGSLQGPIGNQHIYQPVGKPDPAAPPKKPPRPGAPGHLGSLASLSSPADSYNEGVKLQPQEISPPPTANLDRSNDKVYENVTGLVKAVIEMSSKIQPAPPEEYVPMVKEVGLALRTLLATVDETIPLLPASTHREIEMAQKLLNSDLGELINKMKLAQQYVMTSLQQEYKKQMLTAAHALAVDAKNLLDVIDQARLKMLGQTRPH

[3] = tested on: OSCC migration and invasion; conditions: cited from earlier work
[4] = target: ATP binding sites of Pyk2 (Homo sapiens, UniProt Q14289); conditions: cited from earlier work
ATP binding sites of Pyk2, sequence (Q14289 whole entry): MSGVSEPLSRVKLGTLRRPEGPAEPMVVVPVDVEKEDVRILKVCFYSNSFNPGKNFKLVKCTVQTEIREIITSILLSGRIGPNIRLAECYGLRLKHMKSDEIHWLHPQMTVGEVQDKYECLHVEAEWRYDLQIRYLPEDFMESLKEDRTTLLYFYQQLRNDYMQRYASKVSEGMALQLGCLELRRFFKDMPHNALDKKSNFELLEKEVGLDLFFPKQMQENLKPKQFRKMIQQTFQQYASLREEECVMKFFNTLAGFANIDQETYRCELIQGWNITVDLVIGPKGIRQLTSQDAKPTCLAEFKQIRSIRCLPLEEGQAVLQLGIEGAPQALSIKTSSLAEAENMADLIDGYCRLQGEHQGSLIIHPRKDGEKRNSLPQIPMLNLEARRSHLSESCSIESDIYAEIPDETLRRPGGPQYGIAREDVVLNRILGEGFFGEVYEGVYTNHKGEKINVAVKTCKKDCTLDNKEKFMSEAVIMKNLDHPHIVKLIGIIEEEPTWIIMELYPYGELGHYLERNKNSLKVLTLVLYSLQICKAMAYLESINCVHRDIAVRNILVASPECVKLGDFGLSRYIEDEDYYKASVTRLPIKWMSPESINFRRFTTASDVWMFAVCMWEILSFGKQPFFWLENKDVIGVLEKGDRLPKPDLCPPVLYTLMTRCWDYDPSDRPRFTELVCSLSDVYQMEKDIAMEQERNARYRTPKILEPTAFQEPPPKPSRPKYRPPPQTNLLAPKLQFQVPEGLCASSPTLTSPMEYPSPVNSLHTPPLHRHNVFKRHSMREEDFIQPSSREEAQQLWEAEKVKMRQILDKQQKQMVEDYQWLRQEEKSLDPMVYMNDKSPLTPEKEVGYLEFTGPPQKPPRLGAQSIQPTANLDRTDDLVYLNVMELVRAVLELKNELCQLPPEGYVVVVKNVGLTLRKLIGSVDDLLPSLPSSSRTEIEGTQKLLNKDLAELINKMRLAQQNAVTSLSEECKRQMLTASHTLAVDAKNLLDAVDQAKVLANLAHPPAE

[5] = tested on: STAT3; assay: STAT3 cytosolic phosphorylation and nuclear translocation, immunoblots of OSCC cell lines; assay type: cell-based, human
Protocol: FIGS. 2A, 2B, and 2C show the treatment effects of fenretinide (4-HPR, 5 μM), 2-methoxyestradiol (2-ME, 2.5 μM) and the STAT3 inhibitor LY5 (0.5 μM) on STAT3 phosphorylation and nuclear translocation. (A) (JSCC1 cells) (B) (JSCC2 cells) and (C) (JSCC3 cells) were evaluated. Cytosolic and nuclear proteins were harvested from sera deprived JSCC1 and JSCC2 cell lines following 24 h of treatment (5 μM 4-HPR, 2.5 μM 2-ME, or 0.5 μM LY5) or vehicle (0.1% DMSO) control. […] As the JSCC3 cells don't constitutively express pSTAT3, these cells underwent 24 h stimulation in base medium supplemented with 10 ng/mL of IL-6 or 5 ng/mL of TGF-α, with or without 4-HPE, 2-ME or LY5 treatment, followed by harvest. […] (n=3, p<0.05, Wilcoxon matched pairs signed rank test).
Dosing levels were determined by concurrent proliferation and viability studies in conjunction with literature values. The cells in every treatment group were then stimulated for 20 minutes with: vehicle (1 μl ddH2O), 50 ng/ml EGF, 50 ng/ml VEGF, or 50 ng/ml EGF+50 ng/ml VEGF, followed by standard immunoblotting and data normalization relative to GAPDH. […] Immunoblot images were captured (Li-Cor Odyssey imager) and analyzed (Li-Cor Image Studio, Version 4.0) to depict effects on treatment on phosphorylation relative to respective levels of GAPDH. […]

- water solubility [1]: below HPLC detection limit
- solubility ([1]; PBS+0.084% Tween 80, same as in bovine serum): 21 µg/mL (≈ 53.6 µM)
SMILES: CC1=C(/C=C/C(C)=C/C=C/C(C)=C/C(=O)Nc2ccc(O)cc2)C(C)(C)CCC1 [4-HPR, 4-hydroxy(phenyl)retinamide]
- binding to ATP binding site [2]: binds with high affinity
- OSCC migration and invasion [3]: significantly inhibits
- binding to ATP binding site [4]: binds with high affinity
- constitutive STAT3 phosphorylation and pSTAT3 nuclear translocation ([5]; JSCC1 and JSCC2 cells, 5 μM, 24 h): suppressed; also recorded: significantly reduced
- suppression of STAT3 activation and nuclear translocation relative to STAT3 inhibitor LY5 ([5]; JSCC1 cells, 5 μM 4-HPR vs 0.5 μM LY5): appreciably more effectively
